Literature values, collected in patent publication US20110189166A1, “METHODS OF TREATING HEMORHEOLOGIC ABNORMALITIES IN MAMMALS” (priority 2010, published 2011).

Experiments:
[1] = system: aminophospholipid translocase (flippase); conditions: by complexing a sulfhydryl group
red blood cell = conditions: in vitro
cows = conditions: inorganic phosphate for 2-5 days
[2] = system: crenated or spiculated red blood cells (echinocytes); conditions: horses, after exercise; U.S. Pat. No. 4,383,997
human erythrocytes = conditions: red blood cells exposed to LPA
flippase = conditions: independent of excess intracellular calcium

For CCN1C(=O)C=CC1=O [NEM, N-ethylmaleimide], the “activity of aminophospholipid translocase (flippase)” value [1] is listed as “blocks the activity of aminophospholipid translocase (flippase)”.

In the case of CCCC(=O)Nc1ncnc2c1ncn2[C@@H]1O[C@@H]2COP(=O)(O)O[C@H]2[C@H]1OC(=O)CCC [dibutyryl-cAMP], the PS exposure (red blood cell) is listed as “prevents PS exposure”, the intracellular calcium entry (red blood cell) is listed as “inhibits intracellular calcium entry” and the “reduction of red blood cell aggregation” value (red blood cell) is listed as “about 50%”.

In the case of O=P(O)(O)O [inorganic phosphate], the hemolysis after treatment (cows) is listed as “absence of hemolysis” and the “time to complete recovery” value (cows) is listed as 14 to 21 days.

In the case of CC(=O)CCCCn1c(=O)c2c(ncn2C)n(C)c1=O [pentoxyfylline], the “increase of crenated red blood cells following exercise” value [2] is given as “inhibit the increase of crenated red blood cells following exercise”.

For Lysophosphatidic acid [LPA], the “PS exposure on red blood cells” value (human erythrocytes) is given as “resulted in PS exposure”, the “adherence to endothelial cells” value (human erythrocytes) is given as “increased adherence to endothelial cells” and the thrombin generation (human erythrocytes) is given as “potentiated thrombin generation”. For the same molecule, the flippase inhibition (flippase) was “inhibit flippase directly”.
